# Test results taken from patent US10080752B2, “Treatment of brain and central nervous system tumors” (KADMON CORPORATION LLC, priority 2014, dated 2018).
# Tests used:
# [1] = test system: GL261-luc2 luciferase expressing cells; experiment: Efficacy alone or in combination with irradiation in an intracranial glioma model in mice; assay type: in vivo, C57BL/6 albino female mice; conditions: 70 mg/kg once daily, 5 days on/2 days off, oral gavage, FIG. 2
# Method: The compound of Formula 1 was tested to determine antitumor effects when tumors are growing in the brain. GL261-luc2 luciferase expressing cells were implanted intracranially (2 mm right lateral and 1 mm anterior from Bregma, 2-3 mm down from burr hole) into C57BL/6 albino female mice (N=14 per treatment group). Beginning 8 days after cell injection, mice received vehicle or the compound of Formula I at 70 mg/kg body weight (once daily, 5 days on/2 days off schedule) via oral gavage, with or without head-only irradiation (once daily for 5 days). Tumor burden in the brain was evaluated utilizing bioluminescence.
# [2] = Penetration of the blood-brain barrier by quantitative whole body autoradiography; assay type: in vivo, Lister Hooded partially pigmented male rats; conditions: rats
# Method: The compound of Formula 1 was tested to determine bio-distribution in tissues of the brain and CNS.
# Lister Hooded partially pigmented male rats (N=1 rat per time point) received a single dose of the compound of Formula 1 at 30 mg/kg body weight (^14C labeled, 3.7 MBq/kg body weight) via oral gavage. Animals were not fasted prior to dosing.
# Six rats (age 8-10 weeks old) were administered a single oral dose of [^14C]-labeled Formula 1; total dose of 30 mg/kg and a total radioactivity dose of 3.7 MBq/kg (100 μCi/kg). One rat/time point was euthanized by CO2 overdose at each of the following times after dose administration: 1, 6, 24, 72, 120 and 168 hours, followed by immediate snap freezing in hexane/solid CO2, subsequent freezing at −20° C., followed by whole-body autoradiography.
# [3] = Penetration of the blood-brain barrier: plasma and brain concentrations after a single oral dose; assay type: in vivo, Male CD-1 mice; conditions: mice, single dose 100 mg/kg oral gavage
# Method: The compound of Formula I was tested to determine bioavalability in tissues of the brain and CNS.
# Male CD-1 mice (N=3/group) received a single dose of lapatinib or the compound of Formula I at 100 mg/kg via oral gavage. Animals were not food fasted prior to dosing. Dose volumes were calculated based on the animals' body weights measured before the study.
# Plasma and tissue samples were collected 1, 4, 8 and 24 hours post dose (4 time-points/group, and 3 animals/time-point). Whole blood samples were collected into a Na heparin containing tube. Within 30 minutes of collection, the samples were centrifuged at approximately 3,000×g for 10 minutes at 2 to 8° C. to obtain plasma. The plasma samples were divided into 2 aliquots by transferring into 2 cryogenic vials and stored in a freezer at −75±15° C. prior to analysis. Tissues were collected after the blood was collected. Tissues (brain, liver and kidneys) were washed with ice-cold PBS, and the weight was measured and recorded. Each tissue was transferred into a glass vial and stored in a freezer at −75±15° C. prior to sample analysis.
# [4] = comparator in FIG. 1, 100 mg/kg oral gavage in mice; cited from earlier work
Compound,"Growth of glioma tumors in the brain (tumor burden by bioluminescence) ([1]; from 8 days after cell injection, alone)",Anti-tumor effects of irradiation on tumors in the brain (tumor burden by bioluminescence) ([1]; with head-only irradiation once daily for 5 days),"Concentrations of radioactivity in brain compared with blood ([2]; single oral dose 30 mg/kg 14C labeled (3.7 MBq/kg), at 6 and 24 hours after dosing)","Penetration of the blood brain barrier ([2]; single oral dose 30 mg/kg 14C labeled, whole-body autoradiography)",Concentration observed in CNS tissue compared with blood ([3]; FIG. 1),Time for which the CNS tissue concentration remained higher than in blood ([3]; duration of the assay),"Crossing of the blood brain barrier / concentrations in CNS and brain tissue ([3]; samples 1, 4, 8 and 24 hours post dose, FIG. 1)","Crossing of the blood-brain barrier (comparator, as stated in legend of FIG. 1) [4]"
"COc1cc2c(Nc3ccc(Cl)c(Cl)c3F)ncnc2cc1OCC1C[C@@H]2CN(C)C[C@@H]2C1 (stereo partly drawn) [Formula 1, N-(3,4-dichloro-2-fluorophenyl)-7-({[(3aR,6aS)-2-methyloctahydrocyclopenta[c]pyrrol-5-yl]methyl}oxy)-6-(methyloxy)quinazolin-4-amine]",reduced the growth of glioma tumors in the brain,increased the anti-tumor effects of irradiation on tumors in the brain,comparable to that in blood,good penetration of the blood brain barrier,substantially higher,at least 24 hours,crossed the blood brain barrier and attained high concentrations in CNS and brain tissue,
CS(=O)(=O)CCNCc1ccc(-c2ccc3ncnc(Nc4ccc(OCc5cccc(F)c5)c(Cl)c4)c3c2)o1 [lapatinib],,,,,,,,does not cross the blood-brain barrier
